Results from patent US9023813B2 (Nutek Pharma Ltd., priority 2012, dated 2015).

Tests used:
male Sprague Dawley rats = assay: Clinical observations of rats during administration of propofol analogs in the pharmacokinetics study; conditions: time post-10 min i.v. infusion; 0.168 mmol/Kg
Procedure: (§1) Blood samples were to be taken pre-dose, during dose and post dose at designated intervals, with the blood quickly processed and stored at −70° C. until analysis.
(§2) Formulations were prepared on the morning of the dosing day and each was passed through a 0.22 μm filter prior to being administered to animals. A standard dose of 0.168 mmol/Kg per analog was administered to each of the rats. […] Analog stability in the formulations was verified by preparing each formulation and harvesting 200 μL aliquots at 0, 1, 2 and 8 hr while standing at room temperature. After harvesting, each sample was immediately frozen in dry ice until analysis; concentrations of test compounds in the samples were examined by HPLC-UV.
(§3) The animals were surgically prepared with indwelling cannula, double cannulation in carotid artery and jugular vein for i.v. infusion. The anesthetic pentobarbital was used during the surgery, and the animals were allowed to recover 3-5 days after surgery before the formulation was dosed. The dose formulation was administered intravenously via the jugular vein cannula. The 16.8 μmol/mL formulation was administered i.v. at a rate of 1 mL/Kg/min for 10 min.

[1] = Pharmacokinetics: plasma concentrations of prodrug and propofol after intravenous infusion (LC/MS/MS); conditions: for Mean concentration of prodrug and propofol in rat plasma after intravenous infusion administration / AUClast / AUCinf / MRTinf / Cmax / Tmax / t1/2 / CLp / Vdss: analyte = administered compound; for AUClast: to last detected concentration; for Mean Concentration of Propofol in Rat Plasma After Intravenous Administration: analyte = propofol released from the administered compound; for Pro-drug behaviour (release of propofol in vivo): rats, releasing the propofol in a matter of minutes after infusion; for AUCinf / MRTinf: extrapolated to infinity; for Cmax / Tmax / t1/2: rat plasma, IV infusion; for CLp: total body clearance, dose/AUCinf; for Vdss: volume of distribution
Procedure: as §1, §2, §3
Approximately 0.20 mL blood was collected at each designated time point from carotid artery via a catheter. A total of 12 plasma samples were taken from each animal: 1 pre-dose; 2 during the dose (5 into the 10 min infusion and one just prior termination of the 10 min infusion) and 9 post-infusion at 2, 5, 15, 30 min and 1, 2, 3, 4, and 6 hr post-dose. All blood samples were transferred into plastic microcentrifuge tubes containing 5 μL of K2-EDTA (0.5M) as anti-coagulant and placed on ice until processed for plasma. Blood samples were processed for plasma by centrifugation at approximately 5° C. Plasma samples were then stored in 1.5 mL tubes, quick frozen over dry ice and kept at −70±10° C. until LC/MSMS analysis.
For each, a minimum of 6 standard point curve runs in duplicates, and minimum of 5 standards were back calculated to within ±20% of their nominal concentrations. The LLOQ of each test article in plasma was established and 6 QC samples were included in assay runs of samples to ensure assay performance.
Data Analysis. Plasma concentration versus time data was analyzed by non-compartmental approaches using the WinNonlin software program (version 5.2, Pharsight, Mountain View, Calif.) and the pharmacokinetic parameters T½, CL, Vss, AUC(0-t), AUC(0-inf), MRT, and graphs of plasma concentration versus time calculated for each.

[2] = Solubility determination in D2O by 1H NMR with DSS internal standard; conditions: for solubility: D2O, water, thermodynamic from solid
Procedure: Thus the soapy-like solutions obtained were diluted until opalescent and diluted further until the opalescence visually disappeared.

Structure (SMILES)	Rats recovered at (male Sprague Dawley rats)	Mean concentration of prodrug and propofol in rat plasma after intravenous infusion administration ([1]; Time (h) 0)	Mean concentration of prodrug and propofol in rat plasma after intravenous infusion administration ([1]; Time (h) 0.083) [nM]	Mean concentration of prodrug and propofol in rat plasma after intravenous infusion administration ([1]; Time (h) 0.167) [nM]	Mean concentration of prodrug and propofol in rat plasma after intravenous infusion administration ([1]; Time (h) 0.2)	Mean concentration of prodrug and propofol in rat plasma after intravenous infusion administration ([1]; Time (h) 0.25)	Mean concentration of prodrug and propofol in rat plasma after intravenous infusion administration ([1]; Time (h) 0.417)	Mean concentration of prodrug and propofol in rat plasma after intravenous infusion administration ([1]; Time (h) 0.667)	Mean concentration of prodrug and propofol in rat plasma after intravenous infusion administration ([1]; Time (h) 1.166)	Mean concentration of prodrug and propofol in rat plasma after intravenous infusion administration ([1]; Time (h) 2.166)	Mean concentration of prodrug and propofol in rat plasma after intravenous infusion administration ([1]; Time (h) 3.166)	Mean concentration of prodrug and propofol in rat plasma after intravenous infusion administration ([1]; Time (h) 4.166)	Mean concentration of prodrug and propofol in rat plasma after intravenous infusion administration ([1]; Time (h) 6.166)	AUClast [1] [µM·h]	Mean Concentration of Propofol in Rat Plasma After Intravenous Administration ([1]; Time (h) 0)	Mean Concentration of Propofol in Rat Plasma After Intravenous Administration ([1]; Time (h) 4.166)	Pro-drug behaviour (release of propofol in vivo) [1]	Relative solubility [2]	AUCinf [1] [µM·h]	MRTinf [1] [min]	other results
CC(C)c1cccc(C(C)C)c1OC(=O)OCCCO[C@H]1O[C@H](CO)[C@@H](O)[C@H](O)[C@H]1O [Compound 33]	recovered at about 30 min	BQL	16.5	23.1	9.59 nM	BQL	BQL	BQL	BQL	BQL	BQL	BQL	BQL	0.00304	BQL	BQL	very efficient pro-drugs	5.2 (8.1)^4	–	–	Mean Concentration of Propofol in Rat Plasma After Intravenous Administration ([1]; Time (h) 6.166): BQL
CC(C)c1cccc(C(C)C)c1OC(=O)OCCCO[C@@H]1O[C@H](CO)[C@@H](OC2O[C@H](CO)[C@@H](O)[C@H](O)[C@H]2O)[C@H](O)[C@H]1O (stereo partly drawn) [Compound 25]	recovered at about 35 min	BQL	34401	68360	22658 nM	9074 nM	997 nM	97.1 nM	16.2 nM	2.09 nM	BQL	BQL	BQL	8.571	BQL	–	very efficient pro-drugs	>20	8.574	4.62	Rats soporous at (male Sprague Dawley rats): Rats soporous at about 7 min and; Cmax [1]: 68400 nM; Tmax [1]: 10.2 min; t1/2 [1]: 15.2 min; CLp [1]: 20.2 L/h/kg; Vdss [1]: 1.51 L/kg; solubility [2]: > 20 mM
CC(C)c1cccc(C(C)C)c1OC(=O)OCCCO[C@@H]1O[C@H](CO)[C@@H](O)[C@H](O)[C@H]1O [Compound 12]	recovered at about 30 min	BQL	4.11	6.78	BQL	BQL	BQL	BQL	BQL	BQL	BQL	BQL	BQL	0.000773	BQL	BQL	very efficient pro-drugs	5.0	0.00122	6	Mean Concentration of Propofol in Rat Plasma After Intravenous Administration ([1]; Time (h) 6.166): BQL
CC(C)c1cccc(C(C)C)c1OC(=O)OCCO[C@H]1O[C@H](CO)[C@@H](O)[C@H](O)[C@H]1O [Compound 32]	recovered at about 26 min	BQL	4.88	4.97	2.68 nM	BQL	BQL	BQL	BQL	BQL	BQL	BQL	BQL	0.000657	BQL	–	very efficient pro-drugs	12.0	–	–	–
CC(C)c1cccc(C(C)C)c1OC(=O)OCCO[C@@H]1O[C@H](CO)[C@@H](OC2O[C@H](CO)[C@@H](O)[C@H](O)[C@H]2O)[C@H](O)[C@H]1O (stereo partly drawn) [Compound 24]	recovered at about 30 min	BQL	3200	7740	1029 nM	751 nM	36 nM	11.2 nM	3.01 nM	BQL	4.2 nM	BQL	BQL	0.786	BQL	–	very efficient pro-drugs	>20	0.791	12.4	Cmax [1]: 8100 nM; Tmax [1]: 8.4 min; t1/2 [1]: 53.2 min; CLp [1]: 348.2 L/h/kg; Vdss [1]: 120 L/kg; solubility [2]: > 20 mM
